The experiment concerns the target T1, human κ opioid receptor (OPRK1) (Homo sapiens, UniProt P41145).
T1 construct: expressed in transfected cells; host or cells: CHO-K1
The experiment in a line: Determination of activities of κ receptor agonists: inhibition of forskolin-stimulated cAMP release (HTRF) in stably transfected CHO-K1 cells. Format: cell-based. To be noted: for Relative Activity %: relative to Difelikefalin = 100.0. A digest of the protocol:
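Stably transfected CHO-K1 cells stimulated with graded agonist concentrations in presence of forskolin (concentration not specified). Inhibition of forskolin-stimulated cAMP read by HTRF as relative light units; EC50 calculated from dose-response.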

Data on 10 compounds can be found in patent US20260274891A1, “¿ OPIOID RECEPTOR AGONIST AND USE THEREOF” (CHENGDU AODA BIOTECHNOLOGY CO., LTD., priority 2023, published 2026).

Molecules are shown by their SMILES. pEC50: −log10 of the molar value.

A word on the pEC50: it is the negative decadic logarithm of the EC50, by convention in mol/L. Read a low pEC50 as a large EC50.

T1 sequence (P41145 whole entry): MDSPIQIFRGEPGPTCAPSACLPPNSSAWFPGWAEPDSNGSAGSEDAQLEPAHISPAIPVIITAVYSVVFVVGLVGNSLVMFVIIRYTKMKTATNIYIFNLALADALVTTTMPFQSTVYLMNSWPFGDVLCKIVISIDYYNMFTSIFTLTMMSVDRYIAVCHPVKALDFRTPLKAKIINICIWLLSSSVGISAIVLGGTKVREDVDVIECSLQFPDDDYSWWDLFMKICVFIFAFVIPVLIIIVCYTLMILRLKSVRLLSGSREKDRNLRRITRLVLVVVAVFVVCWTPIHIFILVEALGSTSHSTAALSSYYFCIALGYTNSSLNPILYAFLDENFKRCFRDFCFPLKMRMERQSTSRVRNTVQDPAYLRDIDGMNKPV

For `CC(C)C[C@@H](NC(=O)[C@@H](Cc1ccc(F)cc1)NC(=O)[C@H](N)Cc1ccccc1)C(=O)N[C@H](CCCCN)C(=O)N1CCC(N)(C(=O)N[C@@H](CCCCN)C(N)=O)CC1` [Compound 105, D-Phe-D-Phe(4-F)-D-Leu-D-Lys-4-aminopiperidine-4-carboxamide-Lys-NH2], the pEC50 is 10.10 and the “Relative Activity %” value is 762.8%.

In the case of `CC(C)C[C@@H](NC(=O)[C@@H](Cc1ccc(Cl)cc1)NC(=O)[C@H](N)Cc1ccccc1)C(=O)N[C@H](CCCCN)C(=O)N1CCC(N)(C(=O)O)CC1` [Compound 110, D-Phe-D-Phe(4-C1)-D-Leu-D-Lys-4-aminopiperidine-4-carboxamide-OH], the pEC50 was 9.83 and the “Relative Activity %” value stood at 408.6%.

Consider `CC(C)C[C@@H](NC(=O)[C@@H](Cc1ccc(Cl)cc1)NC(=O)[C@H](N)Cc1ccccc1)C(=O)N[C@H](CCCCN)C(=O)N1CCC(N)(C(=O)N[C@@H](CCCCN)C(N)=O)CC1` [Compound 111, D-Phe-D-Phe(4-C1)-D-Leu-D-Lys-4-aminopiperidine-4-carboxamide-Lys-NH2], for which the pEC50 is 10.28 and the “Relative Activity %” value was determined as 1165.5%.

Take `CC(C)C[C@@H](NC(=O)[C@@H](Cc1ccc(Cl)cc1)NC(=O)[C@H](N)Cc1ccccc1)C(=O)N[C@H](CCCCN)C(=O)N1CCC(N)(C(=O)N[C@@H](CCCCN)C(=O)O)CC1` [Compound 112, D-Phe-D-Phe(4-C1)-D-Leu-D-Lys-4-aminopiperidine-4-carboxamide-Lys-OH]: the pEC50 is 10.29 and the “Relative Activity %” value is reported as 1195.3%.

Take `CC(C)C[C@@H](NC(=O)[C@@H](Cc1ccc(Cl)cc1)NC(=O)[C@H](N)Cc1ccccc1)C(=O)N[C@H](CCCCN)C(=O)N1CCC(N)(C(=O)N[C@H](CCCCN)C(=O)O)CC1` [Compound 114, D-Phe-D-Phe(4-C1)-D-Leu-D-Lys-4-aminopiperidine-4-carboxamide-D-Lys-OH]: the pEC50 is 10.29 and the “Relative Activity %” value worked out at 1179.0%.

Take `CC(C)C[C@@H](NC(=O)[C@@H](Cc1ccc(Br)cc1)NC(=O)[C@H](N)Cc1ccccc1)C(=O)N[C@H](CCCCN)C(=O)N1CCC(N)(C(=O)O)CC1` [Compound 116, D-Phe-D-Phe(4-Br)-D-Leu-D-Lys-4-aminopiperidine-4-carboxamide-OH]: the pEC50 is 9.87 and the “Relative Activity %” value came to 448.1%.

Take `CC(C)C[C@@H](NC(=O)[C@@H](Cc1ccc(Br)cc1)NC(=O)[C@H](N)Cc1ccccc1)C(=O)N[C@H](CCCCN)C(=O)N1CCC(N)(C(=O)N[C@@H](CCCCN)C(=O)O)CC1` [Compound 118, D-Phe-D-Phe(4-Br)-D-Leu-D-Lys-4-aminopiperidine-4-carboxamide-Lys-OH]: the pEC50 is 10.20 and the “Relative Activity %” value is 951.7%.

With `CC(C)C[C@@H](NC(=O)[C@@H](Cc1ccc(Br)cc1)NC(=O)[C@H](N)Cc1ccccc1)C(=O)N[C@H](CCCCN)C(=O)N1CCC(N)(C(=O)N[C@H](CCCCN)C(N)=O)CC1` [Compound 119, D-Phe-D-Phe(4-Br)-D-Leu-D-Lys-4-aminopiperidine-4-carboxamide-D-Lys-NH2], the pEC50 was 10.21 and the “Relative Activity %” value was determined as 987.3%.

For the compound `CC(C)C[C@@H](NC(=O)[C@@H](Cc1ccc(I)cc1)NC(=O)[C@H](N)Cc1ccccc1)C(=O)N[C@H](CCCCN)C(=O)N1CCC(N)(C(N)=O)CC1` [Compound 121, D-Phe-D-Phe(4-I)-D-Leu-D-Lys-4-aminopiperidine-4-carboxamide-NH2], the pEC50 was 9.91 and the “Relative Activity %” value turned out to be 496.1%.

`CC(C)C[C@@H](NC(=O)[C@@H](Cc1ccc(I)cc1)NC(=O)[C@H](N)Cc1ccccc1)C(=O)N[C@H](CCCCN)C(=O)N1CCC(N)(C(=O)O)CC1` [Compound 122, D-Phe-D-Phe(4-I)-D-Leu-D-Lys-4-aminopiperidine-4-carboxamide-OH]: the pEC50 is 9.92 and the “Relative Activity %” value is recorded as 505.6%.
